“Also recorded” adds a separate entry of the source.
Tests used:
[1] = tested on: Microplitis croceipes; experiment: Conditioned food-searching response of wasps to individual odor concentrations; type: in vivo
Description: Female wasps were conditioned to a 30 μl solution of indole (Spectrum Chemical MFG CORP., Gardena, Calif.) dissolved in dichloromethane at either 100 μg/ml or 1 μg/ml. The solvent was allowed to evaporate for one min before the assay. The conditioning arena consisted of a 9 cm d, 1.5 cm h metal ring covered with aluminum foil that was placed inside a glass petri dish (10 cm d and 1 cm h) containing the compound-laden filter paper (2.5 cm d). A small (4 mm^2) piece of filter paper laden with the sugar water (1 molar sucrose solution) was placed at the center of the metal ring covered with aluminum foil. A total of 9 holes (ca 1 mm d) were punctured around the tissue paper so that diffusing volatiles could be perceived as they fed on the sugar water. Wasps were allowed to feed for 10 s three times with 30 s between feedings. All conditioning and testing was done under a chemical fume hood. The conditioning arena was replaced with fresh materials after every 5 females (ca 10-15 min). Females were placed in a Plexiglas cage with water for 2 hrs before testing. A total of 20 females were conditioned per day over 2 days.
All test solutions were allowed to evaporate for 1 minute before being presented to the wasps. The test arena was the same as the conditioning arena except that only a single (ca 1 mm d) hole was punctured at the center of the aluminum foil covered metal ring. Wasps were placed close to the hole using a transfer vial. Measured were food-specific behaviors (Wäckers et al., 2002) which included intense substrate antennation with frequent tight turning, a distinct lowering of the head for food searching and attempts to enter the hole. Responses parameters included a recordation of both the number of turns and overall duration of the food searching. Each female was presented a single odor concentration. A total of 20 females (10 to high and 10 to low concentrations) were tested per day over 2 days. Kruskal-Wallis non-parametric ANOVA was used to test the effect of concentration on wasp responses (StatSoft, Inc. 2003).
The arena and procedure for testing were as described in Example 1. However, the wasps were conditioned via positive food conditioning of sugar-water to indole at 1 μg/ml. Additionally, the same wasp was also negatively food conditioned to 100 μg/ml of indole with water. Each female was test with a single indole concentration at either 100 μg/ml of indole or at 1 μg/ml. A total of 20 females (10 to high and 10 to low concentrations) were tested per day over 2 days.
The arena and procedure for testing were as described in Example 1. However, the wasps were conditioned via positive food conditioning of sugar-water to 30 μl of conditioning solution of skatole dissolved in dichloromethane at either 0.001 μg/ml, 0.01 μg/ml, 0.1 μg/ml, 1 μg/ml, 10 μg/ml, or 100 μg/ml. A 1 molar sucrose solution was used as the unconditioned stimulus (reward).

[2] = tested on: Microplitis croceipes; experiment: as above; type: in vivo; details: positively conditioned to 100 μg/ml and 1000 μg/ml, tested at 1000 μg/ml
[3] = conditioned to 1 μg/ml, tested at 1 μg/ml
[4] = conditioned to 100 μg/ml, tested at 100 μg/ml
[5] = conditioned to 0.1 μg/ml, tested at 0.1 μg/ml
[6] = conditioned to 0.1 μg/ml, tested at 1 μg/ml
[7] = conditioned to 1 μg/ml, tested at 0.1 μg/ml
[8] = conditioned to 1 μg/ml, tested at 10 μg/ml
[9] = conditioned to 10 μg/ml, tested at 1 μg/ml
[10] = conditioned to 10 μg/ml, tested at 10 μg/ml

Compound | response of conditioned wasps (food searching time and turns) [1, 3] | response of conditioned wasps (food searching time and turns) [1, 4] | conditioned response to the individual volatile ([1]; single odor experiment) | response of conditioned wasps (food searching time and turns) [1, 5] | response of conditioned wasps (food searching time and turns) [1, 6] | response of conditioned wasps (food searching time and turns) [1, 7] | response of conditioned wasps (food searching time and turns) [1, 8] | response of conditioned wasps (food searching time and turns) [1, 9] | response of conditioned wasps (food searching time and turns) [1, 10] | also measured
c1ccc2[nH]ccc2c1 [indole] | responded to the conditioned concentration | responded to the conditioned concentration | respond reliably |  |  |  |  |  |  | response of conditioned wasps (food searching time and turns) ([1]; conditioned to 1 μg/ml, tested at 100 μg/ml): responded; response of conditioned wasps (food searching time and turns) ([1]; conditioned to 100 μg/ml, tested at 1 μg/ml): did not respond; response of conditioned wasps (food searching time and turns) ([1]; positively conditioned to 1 μg/ml and negatively conditioned to 100 μg/ml, tested at 1 μg/ml): responded to the conditioned concentration; response of conditioned wasps (food searching time and turns) ([1]; positively conditioned to 1 μg/ml and negatively conditioned to 100 μg/ml, tested at 100 μg/ml): did not respond to the negatively conditioned concentration; duration of the conditioned response compared with skatole ([1]; single odor experiment): more prolonged response
C=CC(C)=CCC=C(C)C [ocimene, reference compound] |  |  |  |  |  |  |  |  |  | response of conditioned wasps to a non-conditioned odor ([1]; single odor experiment, non-conditioned floral odor): do not respond
Cc1c[nH]c2ccccc12 [skatole, 3-methyl-indole] | responded to both concentrations | responded to both skatole concentrations | respond reliably | no responses | no responses | responded to both concentrations; also recorded: able to detect it | only responded to the conditioning concentration | responded to both skatole concentrations | responded to both skatole concentrations | response of conditioned wasps (food searching time and turns) [2]: responded to both of the conditioning concentrations; response of conditioned wasps (food searching time and turns) ([1]; conditioned to 10 μg/ml, tested at 100 μg/ml): only responded to the conditioning concentration; response of conditioned wasps (food searching time and turns) ([1]; conditioned to 100 μg/ml, tested at 10 μg/ml): responded to both skatole concentrations; response of conditioned wasps (food searching time and turns) ([1]; conditioned to 100 μg/ml, tested at 1 mg/ml): only responded to the conditioning concentration; response of conditioned wasps (food searching time and turns) ([1]; positively conditioned to 100 μg/ml and 1000 μg/ml, tested at 10 μg/ml): responded; response of conditioned wasps (food searching time and turns) ([1]; positively conditioned to 100 μg/ml and 1000 μg/ml, tested at 100 μg/ml): responded to both of the conditioning concentrations
C[C@]12CCC(=O)C[C@@H]1CC[C@@H]1[C@@H]2CC[C@]2(C)C=CC[C@@H]12 [androstenone, 5α-androst-16-en-3-one] | only responded to the conditioning concentration |  | weak | only responded to the conditioning concentration | only responded to the conditioning concentration | only responded to the conditioning concentration | only responded to the conditioning concentration | did not respond to either concentration | did not respond to either concentration | response of conditioned wasps (food searching time and turns) ([1]; conditioned to 0.01 μg/ml, tested at 0.01 μg/ml): responded to the conditioning concentration; response of conditioned wasps (food searching time and turns) ([1]; conditioned to 0.1 μg/ml, tested at 0.01 μg/ml): only responded to the conditioning concentration

Source: patent publication US8884097B1, “Method to condition an invertebrate to detect a concentration range of a chemical compound” (The United States of America as represented by the …, priority 2011, dated 2014)
